# Source: patent publication US20240174649A1, “CULLIN-RING E3 UBIQUITIN LIGASE 4 INHIBITOR COMPOUNDS AND METHODS OF THEIR USE” (ICAHN SCHOOL OF MEDICINE AT MOUNT SINAI, priority 2021, published 2024)
# What was measured:
# ROC1-CUL2 = ROC1-CUL2 (Homo sapiens (Human), UniProt Q13617); assay: Gel-based di-Ub synthesis; assay type: biochemical; conditions: up to 150 μM
# Kinetic solubility = assay type: physicochemical; conditions: pH 7.4
# Description: (§1) ADME studies on compounds #33-11 and KH-4-43 for “absorption, distribution, metabolism, and excretion” were carried out at CRO, BioDuro. Kinetic solubility, plasma and microsome stability in rat, mouse and human, as well as Caco-2 Permeability were examined.
# ROC1-CUL3 = ROC1-CUL3 (Homo sapiens (Human), UniProt Q13618); assay: Gel-based di-Ub synthesis; assay type: biochemical; conditions: up to 150 μM
# ROC1-CUL4A = ROC1-CUL4A (Homo sapiens (Human), UniProt Q13619); assay: 32P-Ub chain elongation by ROC1-CUL4A; assay type: biochemical; design: concentration or dose not given beside the values; conditions: relative to KH-4-43
# Description: The reaction was incubated for 5 min at 37° C. […] The reaction was incubated for 5 min at room temperature. In the second step (chase), the completed Cdc34b-Ub thiol ester reaction mixture was combined with one third of the completed mono-ubiquitination mixture. The final volume was adjusted to 10 μl with a mix that contained 50 mM Tris-HCl (pH 7.4), 0.5 mM DTT, 0.1 mg/ml of BSA, 5 mM MgCl2, and 2 mM ATP. Compounds were added where indicated. The chase reaction was incubated for 10 min at 37° C. The reaction products were separated by 4-20% SDS-polyacrylamide gel electrophoresis. The reaction scheme was identical to the one described above for FIGS. 12A-B. […] The reaction products, separated by SDS-PAGE, were visualized and analyzed by phospho-imaging using Typhoon 9500 scanner.
# [1] = Mouse tolerance/toxicity study
# [2] = Liver microsome stability; assay type: in vitro ADME
# Description: as §1
# E3 (CUL4) = E3 (CUL4) (Homo sapiens (Human), UniProt Q13619); assay: E3 (CUL4) inhibition (Table 1); assay type: biochemical
# How it was run: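 Two-step assay: Cdc34b-Ub thiol ester formation, then chase with ROC1-cullin mono-ubiquitination mix for 10 min at 37° C in 50 mM Tris-HCl pH 7.4, 0.5 mM DTT, 0.1 mg/ml BSA, 5 mM MgCl2, 2 mM ATP with compounds. 32P-Ub chain products resolved by SDS-PAGE and quantified by phospho-imaging.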
# MV4-11 cells = assay: Cell viability assay (CellTiter-Glo); assay type: cell-based; conditions: Homo sapiens; MV4-11, 48 hours
# Description: The ability of #33-11 to induce apoptosis was measured by Annexin V flow cytometry (FIG. 1A). EC50/EC90 for each cell line are indicated. […] Mouse pancreatic cancer cell lines K8484 and DT8082 were isolated from the KPC mice (Olive et al., “Inhibition of Hedgehog Signaling Enhances Delivery of Chemotherapy in a Mouse Model of Pancreatic Cancer,” Science 324(5933):1457-1461 (2009), which is hereby incorporated by reference in its entirety), the rest (34 in total) are all human cancer cell lines. Washout: MV4-11 cells at 10^5 cells/ml were treated with compound at concentrations as indicated (FIG. 1C). At specified hours post compound treatment, the cells were washed once with fresh complete media without compound and allowed to grow for additional 48 hours followed by viability test as in FIG. 1B.
# For cell viability assay, 10,000 cells (per well) were seeded in 96 well plates in 100 microliters of media and incubated overnight. Serial dilutions of compounds tested were then added to wells in triplicate. […] The luminescence of each well was then read using a Synergy multi-mode plate reader (BioTek). For determining relative luminescence, the background (average reading of wells containing only media and CellTiter-Glo reagent, no cells) was first subtracted from the reading of each sample. […] Then EC50 was determined using the four parameter logistics regression standard curve.
# Chain of ROC1-CUL2 (Q13617 whole entry): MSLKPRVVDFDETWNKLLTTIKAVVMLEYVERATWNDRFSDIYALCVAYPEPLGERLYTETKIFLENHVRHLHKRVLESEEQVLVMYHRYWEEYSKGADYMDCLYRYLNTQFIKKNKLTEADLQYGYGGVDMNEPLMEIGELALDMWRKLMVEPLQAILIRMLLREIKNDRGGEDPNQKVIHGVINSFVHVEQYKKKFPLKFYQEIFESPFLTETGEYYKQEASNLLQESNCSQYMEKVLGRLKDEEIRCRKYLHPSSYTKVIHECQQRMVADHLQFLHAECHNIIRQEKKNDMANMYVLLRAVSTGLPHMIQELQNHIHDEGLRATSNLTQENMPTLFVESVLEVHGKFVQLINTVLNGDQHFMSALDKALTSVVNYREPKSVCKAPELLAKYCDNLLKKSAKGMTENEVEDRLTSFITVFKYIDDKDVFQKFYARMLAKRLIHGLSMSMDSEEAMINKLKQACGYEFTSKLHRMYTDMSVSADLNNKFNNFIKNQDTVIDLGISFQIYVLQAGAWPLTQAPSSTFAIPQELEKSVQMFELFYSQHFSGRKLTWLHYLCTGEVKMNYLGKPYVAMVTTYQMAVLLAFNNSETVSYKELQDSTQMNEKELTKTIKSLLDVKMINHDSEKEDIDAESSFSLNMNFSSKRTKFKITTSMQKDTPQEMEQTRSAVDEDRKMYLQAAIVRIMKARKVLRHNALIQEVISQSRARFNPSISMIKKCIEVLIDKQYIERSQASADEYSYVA
# Chain of ROC1-CUL2 (P62877 whole entry partner): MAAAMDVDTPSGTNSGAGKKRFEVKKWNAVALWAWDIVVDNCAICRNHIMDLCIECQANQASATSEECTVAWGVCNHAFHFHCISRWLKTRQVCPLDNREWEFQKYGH
# Chain of ROC1-CUL3 (Q13618 whole entry): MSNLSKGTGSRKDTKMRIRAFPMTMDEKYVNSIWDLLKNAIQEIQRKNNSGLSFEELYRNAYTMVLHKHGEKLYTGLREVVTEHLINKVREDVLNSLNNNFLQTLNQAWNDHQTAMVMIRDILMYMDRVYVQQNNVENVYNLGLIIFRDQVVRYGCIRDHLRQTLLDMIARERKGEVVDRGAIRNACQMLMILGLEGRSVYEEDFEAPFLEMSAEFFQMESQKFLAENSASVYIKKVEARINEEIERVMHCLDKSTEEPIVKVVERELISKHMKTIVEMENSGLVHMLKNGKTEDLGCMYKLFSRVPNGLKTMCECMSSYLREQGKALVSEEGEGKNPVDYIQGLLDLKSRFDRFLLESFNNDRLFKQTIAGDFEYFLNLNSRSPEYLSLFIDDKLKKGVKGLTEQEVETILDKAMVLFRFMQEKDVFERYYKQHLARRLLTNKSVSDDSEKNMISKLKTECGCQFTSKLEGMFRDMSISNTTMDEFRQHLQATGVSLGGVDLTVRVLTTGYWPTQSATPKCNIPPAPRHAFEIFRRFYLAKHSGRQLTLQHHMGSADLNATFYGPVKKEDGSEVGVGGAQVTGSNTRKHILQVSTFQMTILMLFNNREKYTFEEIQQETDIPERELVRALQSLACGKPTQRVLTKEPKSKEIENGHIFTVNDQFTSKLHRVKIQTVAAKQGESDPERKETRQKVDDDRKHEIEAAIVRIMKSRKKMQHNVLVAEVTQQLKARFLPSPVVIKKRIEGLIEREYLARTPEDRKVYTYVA
# Chain of ROC1-CUL3 (P62877 whole entry partner): as the sequence (P62877 whole entry partner) above
# Chain of E3 (CUL4) (Q13619 whole entry): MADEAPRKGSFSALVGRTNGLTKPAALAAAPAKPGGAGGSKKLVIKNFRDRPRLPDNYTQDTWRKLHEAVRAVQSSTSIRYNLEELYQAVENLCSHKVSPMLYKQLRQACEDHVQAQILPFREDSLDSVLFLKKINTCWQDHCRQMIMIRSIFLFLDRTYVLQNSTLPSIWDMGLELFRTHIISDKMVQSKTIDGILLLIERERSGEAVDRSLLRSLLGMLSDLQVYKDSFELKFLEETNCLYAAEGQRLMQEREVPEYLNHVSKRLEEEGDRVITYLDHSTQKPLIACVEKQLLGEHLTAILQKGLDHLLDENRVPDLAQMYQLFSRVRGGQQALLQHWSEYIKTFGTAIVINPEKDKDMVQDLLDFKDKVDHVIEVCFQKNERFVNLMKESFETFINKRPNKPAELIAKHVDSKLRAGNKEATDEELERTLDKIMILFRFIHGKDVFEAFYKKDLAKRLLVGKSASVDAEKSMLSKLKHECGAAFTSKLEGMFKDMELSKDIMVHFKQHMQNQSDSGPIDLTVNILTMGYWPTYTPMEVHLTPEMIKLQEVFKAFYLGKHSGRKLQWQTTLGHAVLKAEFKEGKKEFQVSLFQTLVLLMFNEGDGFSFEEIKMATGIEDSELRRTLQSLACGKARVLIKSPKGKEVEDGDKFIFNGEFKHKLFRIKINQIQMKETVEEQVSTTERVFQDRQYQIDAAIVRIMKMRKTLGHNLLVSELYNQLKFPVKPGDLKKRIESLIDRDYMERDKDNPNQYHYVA
# Chain of E3 (CUL4) (P62877 whole entry partner): as the sequence (P62877 whole entry partner) above
# Chain of ROC1-CUL4A (Q13619 39-759): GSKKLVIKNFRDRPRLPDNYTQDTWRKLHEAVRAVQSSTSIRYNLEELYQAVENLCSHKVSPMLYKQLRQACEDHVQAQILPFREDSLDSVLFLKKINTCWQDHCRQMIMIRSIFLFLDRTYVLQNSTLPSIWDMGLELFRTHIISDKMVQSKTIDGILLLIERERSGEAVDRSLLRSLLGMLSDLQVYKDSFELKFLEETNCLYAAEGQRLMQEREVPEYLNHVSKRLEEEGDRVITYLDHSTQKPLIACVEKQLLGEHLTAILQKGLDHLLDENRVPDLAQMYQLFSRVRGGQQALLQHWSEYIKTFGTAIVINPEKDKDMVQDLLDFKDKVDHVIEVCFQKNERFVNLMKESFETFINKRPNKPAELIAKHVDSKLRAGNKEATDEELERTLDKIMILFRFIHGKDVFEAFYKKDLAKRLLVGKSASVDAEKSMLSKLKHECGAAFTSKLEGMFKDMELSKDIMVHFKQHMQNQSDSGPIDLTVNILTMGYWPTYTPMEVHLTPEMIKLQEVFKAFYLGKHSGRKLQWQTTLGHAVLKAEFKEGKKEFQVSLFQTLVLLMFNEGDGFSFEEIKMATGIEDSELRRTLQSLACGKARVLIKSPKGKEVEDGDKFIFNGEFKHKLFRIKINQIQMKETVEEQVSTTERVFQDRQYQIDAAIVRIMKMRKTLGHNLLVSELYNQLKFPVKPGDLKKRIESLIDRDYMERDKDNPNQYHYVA
# Chain of ROC1-CUL4A (P62877 15-108 partner): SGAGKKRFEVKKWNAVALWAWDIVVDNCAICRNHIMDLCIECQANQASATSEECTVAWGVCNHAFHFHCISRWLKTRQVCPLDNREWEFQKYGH
Structure (SMILES),level of di-Ub product (ROC1-CUL2),"Kinetic solubility, rating (Kinetic solubility)",level of di-Ub product (ROC1-CUL3),E3 CRL4 Relative Inhibition (ROC1-CUL4A),necropsy findings ([1]; 50 mg/kg),"body weight loss ([1]; 50 mg/kg IP daily, 7 days)",Liver microsomes: t1/2 ([2]; Human),Liver microsomes: t1/2 ([2]; Rat),EC50 (E3 (CUL4)),EC50 (MV4-11 cells)
"O=c1c(-c2cnn(-c3ccccc3)c2)c(C(F)(F)F)oc2c(O)c(O)ccc12 [#33-11, 7,8-dihydroxy-3-(1-phenyl-1H-pyrazol-4-yl)-2-(trifluoromethyl)-4H-chromen-4-one]",remained almost unchanged,moderate solubility,remained almost unchanged,37%,no adverse effects,no significant body weight loss,,,,
"O=c1c(-c2cnn(-c3ccc(Cl)cc3)c2)c(C(F)(F)F)oc2c(O)c(O)ccc12 [KH-4-43, 3-(1-(4-chlorophenyl)-1H-pyrazol-4-yl)-7,8-dihydroxy-2-(trifluoromethyl)-4H-chromen-4-one]",,,,,,,>8.33 h,>8.33 h,10 µM,3 µM
